Here are results for four compounds from patent publication US10301270B2, “Compositions and methods for quadricyclane modification of biomolecules” (The Regents of the University of California, priority 2011, dated 2019).

Molecules are shown by their SMILES. “Also recorded” adds a separate entry of the source. Like-named read-outs stand apart in the source and are kept apart here.

What all share (format): physicochemical
Data set [1] in a line: Photo-lability of complex 3 in ambient light (NMR, UV/Vis/NIR). The following applies: CDCl3 solution in an NMR tube. How it is done: Complex 3 (2.2 mg) was dissolved in CDCl3 (˜0.75 mL) and placed in an NMR tube on the bench continually exposed to ambient light. NMR spectra were periodically obtained. The asterisks indicate the chemical shifts for 7-acetoxy norbornadiene (4). At the 36 h time point, there is a 1:1.1 ratio of 3:4 as judged by integration of the olefin peaks.
Using an NMR assay degradation of 3 over the first few hours is not evident. However, using UV/Vis/NIR spectroscopy, which has greater sensitivity than NMR, the formation of 2 from 3 is evident at early timepoints. A solution of 3 was prepared in CH3CN and left in ambient light. A UV/Vis/NIR spectrum was obtained every 15 min. The NIR absorption band at 855 nm characteristic of 2 is growing in, while the small hump centered at ˜400 nm characteristic of […] is decreasing. The absorption band at 350 nm is also increasing in intensity.

Data set [2] in a line: Stability of 7-acetoxy quadricyclane 1 in PBS (NMR). The following applies: room temperature, more than 2 months (NMR taken 2.5 months after preparation, CD3CN/deuterated PBS). How it is done:
7-acetoxy quadricyclane (1, 2 mg) was dissolved in 0.4 mL of CD3CN. To this solution, 0.4 mL of deuterated PBS was added. The NMR spectrum above was taken 2.5 months after the described solution was prepared.

A short description of data set [3]: Stability of quadricyclane 1 to cysteine and other biological nucleophiles, BSA and cell culture media. As to the method:
7-acetoxy quadricyclane (1, 2 mg) was dissolved in 0.4 mL of CD3CN. To this solution, 0.4 mL of deuterated PBS and 3 mg of cysteine were added. The NMR spectrum above was taken 2.5 months after the described solution was prepared.

Data set [4] in a line: Solubility and reactivity of bis(dithiobenzil)nickel(II) 2.
Data set [5] in a line: Prevention of photo-degradation of complex 3 by diethyldithiocarbamate (UV/Vis/NIR). The following applies: 200 μM 3, 1.25 mM 5, 3:1 CH3CN/H2O, 20 h ambient light. How it is done: A solution containing 200 μM 3 and 0 (red) or 1.25 (green) mM 5 in 3:1 CH3CN/H2O was prepared and left in ambient light continually. A. UV/Vis/NIR spectra of the described solutions taken before being exposed to light. B. UV/Vis/NIR spectra of the described solutions taken after 20 h of exposure to light. The red line contains little absorbance due to the low solubility of 2 in acetonitrile. If 2 is reduced to the anionic state by cysteine (1.25 mM, blue line) solubility in acetonitrile is improved and evidence of photodegradation can be seen. The diethyldithiocarbamate treated sample remains unaltered after exposure to light indicating no photodegradation occurred.

Take `CC(=O)OC1C2C=CC1C1C2[S]2=[Ni]3(=[S]1C(c1ccccc1)=C(c1ccccc1)[S]3)[S]C(c1ccccc1)=C2c1ccccc1` (stereo not drawn) [Complex 3]: the half-life at 2.9 mg/mL in data set [1] (NMR, read-out: Calculated half-life of photo-degradation based on all integration data (converted)) was 34.8 h; in data set [1] (read-out: Half-life of the light-induced reversion (converted)), around 35 h.

As to `CC(=O)OC1C2C3C2C2C1C32` (stereo not drawn) [Compound 1, 7-acetoxy Quadricyclane], the “Stability in phosphate buffered saline (PBS, pH 7.4)” value in data set [2] is on record as “stable; also recorded: no degradation observed”. In addition, the “Stability in the presence of bovine serum albumin (BSA) and cell culture media” value in data set [3] (conditions emulating metabolic labeling experiments) is “stable”. Besides, in data set [3] (cysteine: CD3CN/deuterated PBS, NMR after 2.5 months), the “Reactivity with sugars, oxidants and free amino acids, most notably cysteine” value was “stable; also recorded: unreactive”.

Regarding `S=C(C(=S)c1ccccc1)c1ccccc1.S=C(C(=S)c1ccccc1)c1ccccc1.[Ni]` [Compound 2, Bis(dithiobenzil)nickel(II)], the Solubility in acetonitrile result in data set [4] (acetonitrile) is reported as “low”. In data set [4] (in dichloromethane), the “Reactivity with a variety of nucleophiles” value was “unreactive”. Also, the “Solubility in polar solvents” value in data set [4] (polar solvents) is “limited”.

In the case of `CCN(CC)C(=S)S` [Compound 5, diethyldithiocarbamate], in data set [5], the “Effect on photo-degradation of complex 3” value is on record as “prevented”.
